Data on seven compounds can be found in US10828317B2, “Method of treating bacterial infections” (priority 2016, dated 2020).

One assay deals with K. pneumoniae EN0262. The following applies: commercial antibiotics; data provided by IMBIM, BMC, Uppsala University; cited from earlier work.
The test system of the next assay is S. sonnei APV00908. In words: MIC and antibiogram. The assay is classed as cell-based. The following applies: for Antibiogram category (resistance pattern): letter before the MIC.
For the next assay, the system named is S. flexneri APV00906. Nature of the assay: microbe, parasite or virus in culture. The assay is classed as cell-based. Conditions: for Antibiogram category (resistance pattern): letter before the MIC. An excerpt: (§1) Inhibition of Heliobacter is important in view of increasing resistance and its association to gastric cancer.
Another assay has as its system S. flexneri APV00907. Nature of the assay: MIC and antibiogram. It counts as cell-based. The following applies: for Antibiogram category (resistance pattern): letter before the MIC.
Text: as §1

The test system of a further assay is P. mirabilis EN0457. Nature of the assay: MIC. Conditions: Proteus mirabilis, EN0457, Combination 2 AZT+trimethoprim+uridine+thymidine, Table 16; read-out: MIC. The assay is classed as cell-based, Proteus mirabilis.
The subject of a further assay is A. baumannii EN007. In words: MIC, WT (EN007 = EN0007). The assay is classed as cell-based, Acinetobacter baumannii.
In another assay the test system is P. mirabilis ST19 EN0445. In words: MIC. The assay is classed as cell-based, Proteus mirabilis. Conditions: Proteus mirabilis, read-out: MIC.
Another assay deals with E. coli EN002. In words: MIC, DtoIC. It counts as cell-based, Escherichia coli. The following applies: Escherichia coli, read-out: MIC.
A further assay deals with M. luteus EN0455. Nature of the assay: MIC. The following applies: Micrococcus luteus, EN0455, Combination 2 AZT+trimethoprim+uridine+thymidine, Table 16; read-out: MIC. It counts as cell-based, Micrococcus luteus.
The subject of a further assay is Citrobacter sp. EN0465. In words: MIC. Conditions: Citrobacter, read-out: MIC. The assay is classed as cell-based.
The subject of another assay is S. marescens EN0454. Nature of the assay: MIC. Conditions: Serratia, EN0454, Combination 2 AZT+trimethoprim+uridine+thymidine, Table 16; read-out: MIC. It counts as cell-based, Serratia marescens.
The subject of a further assay is A. baumannii EN016. In words: MIC, WT. The assay is classed as cell-based, Acinetobacter baumannii. Conditions: Acinetobacter baumannii, read-out: MIC.
In the next assay the test system is E. coli strain no 2. In words: MIC vs E. coli LMG 15862, penicillin resistant. Conditions: Escherichia coli, Uridine 0 μg/ml.
In a further assay the test system is S. aureus strain no 13. In words: MIC vs S. aureus LMG 15975, MRSA. Conditions: Staphylococcus aureus.
Assay [1] relates to A. pittii or A. nosocomialis EN0180. In words: MIC. The assay is classed as cell-based, Acinetobacter pittii or nosocomialis. Conditions: read-out: MIC.
A further assay has as its system E. coli. Nature of the assay: Murine peritonitis model. Further details: score at sampling: scale not given here. The assay is classed as in vivo, mice.
The test system of another assay is P. aeruginosa EN0459. Nature of the assay: MIC. It counts as cell-based, Pseudomonas aeruginosa. Conditions: Pseudomonas aeruginosa, read-out: MIC.
The test system of another assay is S. aureus EN008. Nature of the assay: MIC, Gram-positive control. The assay is classed as cell-based, Staphylococcus aureus. Conditions: Staphylococcus aureus, EN008, Combination 2 AZT+trimethoprim+uridine+thymidine, Table 16; read-out: MIC.
The next assay concerns P. aeruginosa EN0422. Nature of the assay: MIC. The assay is classed as cell-based, Pseudomonas aeruginosa. Conditions: Pseudomonas aeruginosa, read-out: MIC.
The subject of the next assay is P. aeruginosa EN014. In words: MIC, WT. It counts as cell-based, Pseudomonas aeruginosa. Conditions: Pseudomonas aeruginosa, read-out: MIC.
The subject of another assay is P. aeruginosa EN0460. Nature of the assay: MIC. The assay is classed as cell-based, Pseudomonas aeruginosa. Conditions: Pseudomonas aeruginosa, read-out: MIC.
The next assay concerns P. aeruginosa EN004. In words: MIC, WT (EN004 = EN0004). The assay is classed as cell-based, Pseudomonas aeruginosa.
Setting [2] is: combination AZT+trimethoprim+uridine, Table 17B.

≈ marks a conversion by molar mass, not a printed value. Where “and” joins values, the source holds several entries; their conditions need not be identical. Equal entries are not always repeated. Where two headings read alike, the source gives them in different places. Bounds are passed on as bounds.

As to piperacillin-tazobactam [TZP], the MIC (usually the lowest concentration found to suppress growth) in the assay with K. pneumoniae EN0262 was 64 µg/mL. Besides, the “Antibiogram MIC” value in the assay with S. sonnei APV00908, in the assay on S. flexneri APV00906 and in the assay with S. flexneri APV00907 was ≤ 4 µg/mL throughout.

Turning to trimethoprim-sulfamethoxazole [SXT], the MIC in the assay with K. pneumoniae EN0262 is 4 µg/mL. Moreover, the “Antibiogram MIC” value in the assay with S. sonnei APV00908 is ≥ 160 µg/mL; in the assay on S. flexneri APV00906, ≥ 320 µg/mL; with S. flexneri APV00907, ≥ 320 µg/mL.

On to gentamicin, for which the MIC in the assay on K. pneumoniae EN0262 was 1 µg/mL. Also, the results for the “Antibiogram MIC” value with S. sonnei APV00908, in the assay on S. flexneri APV00906 and in the assay on S. flexneri APV00907 were ≤ 1 µg/mL, 4 µg/mL and ≤ 1 µg/mL, respectively. Moreover, the “Antibiogram category (resistance pattern)” value (“Antibiogram category” below) with S. sonnei APV00908, in the assay on S. flexneri APV00906 and in the assay on S. flexneri APV00907 was “R*” throughout.

For the compound amoxicillin-clavulanic acid [AMC], the MIC in the assay with K. pneumoniae EN0262 was >64 µg/mL. The entries for the “Antibiogram MIC” value in the assay on S. sonnei APV00908, in the assay with S. flexneri APV00906 and in the assay with S. flexneri APV00907 were ≤ 2 µg/mL, 4 µg/mL and 16 µg/mL, respectively. The “Antibiogram category” value with S. flexneri APV00907 is listed as “|”.

For the compound `Cc1cn([C@H]2C[C@H](N=[N+]=[N-])[C@@H](CO)O2)c(=O)[nH]c1=O` [AZT, 3′-azido-3′-deoxythymidine], the MIC with P. mirabilis EN0457 is > 4 µg/mL; with A. baumannii EN007 (Acinetobacter baumannii, EN007, Combination 1 AZT+trimethoprim+uridine, Table 16, read-out: MIC), > 4 µg/mL; in the assay on A. baumannii EN007 (Acinetobacter baumannii, EN007, Combination 2 AZT+trimethoprim+uridine+thymidine, Table 16, read-out: MIC), > 4 µg/mL; with A. baumannii EN007 (Acinetobacter baumannii, EN007, combination AZT+trimethoprim+uridine, Table 6, read-out: MIC) it was > 4 µg/mL; with A. baumannii EN007 (setting [2]) it was >4 µg/mL; with P. mirabilis ST19 EN0445 (ST19EN0445, Combination 2 AZT+trimethoprim+uridine+thymidine, Table 16), > 4 µg/mL. Besides, the MIC with P. mirabilis ST19 EN0445 (ST19EN0445, combination AZT+trimethoprim+uridine, Table 6) was > 4 µg/mL; with E. coli EN002 (EN002, Combination 1 AZT+trimethoprim+uridine, Table 16) it was 0.016 µg/mL; with E. coli EN002 (EN002, combination AZT+trimethoprim+uridine, Table 6), 0.016 µg/mL; in the assay on M. luteus EN0455, > 4 µg/mL; in the assay on Citrobacter sp. EN0465 (SP.EN0465, Combination 1 AZT+trimethoprim+uridine, Table 16), > 4 µg/mL; with Citrobacter sp. EN0465 (SP.EN0465, Combination 2 AZT+trimethoprim+uridine+thymidine, Table 16), > 4 µg/mL. Also, the MIC in the assay on Citrobacter sp. EN0465 (SP.EN0465, combination AZT+trimethoprim+uridine, Table 6) is > 4 µg/mL; in the assay on S. marescens EN0454 it was > 4 µg/mL; in the assay with A. baumannii EN016 (EN016, Combination 1 AZT+trimethoprim+uridine, Table 16) it was > 4 µg/mL; in the assay on A. baumannii EN016 (EN016, Combination 2 AZT+trimethoprim+uridine+thymidine, Table 16) it was > 4 µg/mL; in the assay with A. baumannii EN016 (EN016, combination AZT+trimethoprim+uridine, Table 6) it was > 4 µg/mL; in the assay with E. coli strain no 2 (NO2, read-out: MIC AZT, Iclaprim 0.1) it was > 8 µg/mL. In addition, the MIC with E. coli strain no 2 (NO2, read-out: MIC AZT, Iclaprim 0.2) is > 8 µg/mL; in the assay with S. aureus strain no 13 (NO13, read-out: MIC AZT, Iclaprim 0, Uridine 0 μg/ml), > 32 µg/mL; with S. aureus strain no 13 (NO13, read-out: MIC AZT, Iclaprim 0, Uridine 100 μg/ml), > 32 µg/mL; in the assay on S. aureus strain no 13 (NO13, read-out: MIC AZT, Iclaprim 0, Uridine 300 μg/ml) it was > 32 µg/mL; with S. aureus strain no 13 (NO13, read-out: MIC AZT, Iclaprim 0, Uridine 500 μg/ml), > 32 µg/mL; in the assay with S. aureus strain no 13 (NO13, read-out: MIC AZT, Iclaprim 0.03, Uridine 300 μg/ml), ≤ 0.008 µg/mL. The MIC in the assay on S. aureus strain no 13 (NO13, read-out: MIC AZT, Iclaprim 0.03, Uridine 500 μg/ml) was ≤ 0.008 µg/mL; in [1] (Combination 1 AZT+trimethoprim+uridine, Table 16) it was > 4 µg/mL; in assay [1] (Combination 2 AZT+trimethoprim+uridine+thymidine, Table 16) it was > 4 µg/mL; in [1] (combination AZT+trimethoprim+uridine, Table 6), > 4 µg/mL; in the assay with P. aeruginosa EN0459 (EN0459, Combination 1 AZT+trimethoprim+uridine, Table 16), > 4 µg/mL; with P. aeruginosa EN0459 (EN0459, Combination 2 AZT+trimethoprim+uridine+thymidine, Table 16), > 4 µg/mL. In addition, the MIC in the assay with P. aeruginosa EN0459 (EN0459, combination AZT+trimethoprim+uridine, Table 6) was > 4 µg/mL; in the assay with S. aureus EN008, > 4 µg/mL; in the assay on P. aeruginosa EN0422 (EN0422, Combination 1 AZT+trimethoprim+uridine, Table 16), > 4 µg/mL; with P. aeruginosa EN0422 (EN0422, Combination 2 AZT+trimethoprim+uridine+thymidine, Table 16), > 4 µg/mL; in the assay with P. aeruginosa EN0422 (EN0422, combination AZT+trimethoprim+uridine, Table 6) it was > 4 µg/mL; in the assay with P. aeruginosa EN014 (EN014, Combination 1 AZT+trimethoprim+uridine, Table 16), > 4 µg/mL. The MIC in the assay with P. aeruginosa EN014 (EN014, Combination 2 AZT+trimethoprim+uridine+thymidine, Table 16) was > 4 µg/mL; in the assay with P. aeruginosa EN014 (EN014, combination AZT+trimethoprim+uridine, Table 6) it was > 4 µg/mL; in the assay with P. aeruginosa EN0460 (EN0460, Combination 1 AZT+trimethoprim+uridine, Table 16), > 4 µg/mL; in the assay with P. aeruginosa EN0460 (EN0460, Combination 2 AZT+trimethoprim+uridine+thymidine, Table 16), > 4 µg/mL; in the assay on P. aeruginosa EN0460 (EN0460, combination AZT+trimethoprim+uridine, Table 6), > 4 µg/mL; with P. aeruginosa EN004 (Pseudomonas aeruginosa, EN004, Combination 1 AZT+trimethoprim+uridine, Table 16, read-out: MIC), > 4 µg/mL. Also, the MIC in the assay on P. aeruginosa EN004 (Pseudomonas aeruginosa, EN004, Combination 2 AZT+trimethoprim+uridine+thymidine, Table 16, read-out: MIC) was > 4 µg/mL; with P. aeruginosa EN004 (Pseudomonas aeruginosa, EN004, combination AZT+trimethoprim+uridine, Table 6, read-out: MIC), > 4 µg/mL; in the assay with P. aeruginosa EN004 (setting [2]) it was >4 µg/mL. For the same compound, the “CFU/ml PF” value in the assay with E. coli (AZT 30 mg/kg, per mouse) was 1.65E+04 CFU/ml and 4.25E+05 CFU/ml and 1.10E+07 CFU/ml and 6.75E+05 CFU/ml. In addition, in the assay with E. coli (AZT 30 mg/kg, per mouse), the “log CFU/ml PF” value was 4.22 log CFU/ml and 5.63 log CFU/ml and 7.04 log CFU/ml and 5.83 log CFU/ml. In the assay with E. coli (AZT 30 mg/kg, per mouse), the score at sampling was found to be 1. For the same compound, the “inhibition in mice infected with E. coli (in words)” value with E. coli (murine peritonitis model) is listed as “slight inhibition”.

As for `NCC[C@H](O)C(=O)N[C@@H]1C[C@H](N)[C@@H](O[C@H]2O[C@H](CN)[C@@H](O)[C@H](O)[C@H]2O)[C@H](O)[C@H]1O[C@H]1O[C@H](CO)[C@@H](O)[C@H](N)[C@H]1O` [AMK, amikacin], in the assay on K. pneumoniae EN0262, the minimum inhibitory concentration (MIC) is 8 µg/mL (≈ 13.7 µM). The “Antibiogram category” value with S. sonnei APV00908, in the assay on S. flexneri APV00906 and with S. flexneri APV00907 was “R*” throughout.

As for `CC(C)(O/N=C(\C(=O)N[C@@H]1C(=O)N2C(C(=O)[O-])=C(C[n+]3ccccc3)CS[C@H]12)c1csc(N)n1)C(=O)O` [CAZ, ceftazidime], the MIC in the assay on K. pneumoniae EN0262 was >32 µg/mL. Further, the “Antibiogram category” value in the assay on S. flexneri APV00906 is on record as “|”.
